Assay results reported in US12391657B2, “Small molecules that bind and/or modulate differentforms of tau oligomers” (The Board of Regents of the University of Texas System, priority 2019, dated 2025).
Entries after “also recorded” stand apart in the source; their conditions may differ.

Assays:
[1] = molecular target: T1, recombinant tau oligomers (TauO) (Homo sapiens, UniProt P10636); assay: Western blot of recombinant tau oligomers with and without compounds; assay type: biochemical; conditions: curcumin 5× and 10×, oligomerization conditions
T1 construct: made in house
Description: Pre-cast NuPAGE 4-12% Bis-Tris Gels for SDS-PAGE (Introvigen) were loaded with 3 μg of recombinant tau for each sample per well along with molecular weight marker. After being separated by electrophoresis, proteins were transferred to nitrocellulose membranes. Membranes were then blocked with 10% nonfat milk in Tris-buffered saline with very low tween 0.01% (TBS-T) overnight at 4° C. The next day membranes were probed with T22 (1:250) for tau oligomers and tau5 (1:10000) for total tau, diluted in 5% nonfat milk for 1 hour at RT. Membranes were then incubated with horseradish peroxidase-conjugated IgG anti-rabbit (1:10000) and anti-mouse (1:10000) secondary antibodies to detect, T22 and Tau5, respectively. ECL plus (GE Healthcare) was used for signal detection. Densitometric analysis of each band was quantified using Image J and analyzed by one-way ANOVA.
Recombinant tau protein (tau-441 (2N4R) MW 45.9 kDa) was expressed and purified as described (Margittai and Langen 2004, Margittai and Langen 2006). The tau pellet was treated with 8M urea followed by overnight dialysis against 1× phosphate-buffered saline (PBS) pH 7.4. Tau concentration was measured using bicinchoninic acid protein assay (Micro BCA kit, Pierce) and normalized to 1 mg/ml by adding 1× PBS. Aliquots of tau monomer in PBS were stored at −20° C. […]

[2] = molecular target: T1, recombinant tau oligomers (TauO); assay: Dot blot of recombinant tau oligomers with and without compounds; assay type: biochemical; conditions: curcumin
Description: The dot blot assay was performed as previously described (Lasagna-Reeves, Castillo-Carranza et al. 2010), to detect tau oligomers in the absence and presence of small molecules. Briefly, 1.5 μl of each end-product reaction was applied onto nitrocellulose membranes and then blocked with 10% nonfat milk in TBS-T overnight at 4° C. Next day, membranes were probed with T22 (1:250) for immunoreactivity with tau oligomers and Tau5 (1:10000) for total tau, diluted in 5% nonfat milk for 1 hour at RT. Membranes were then washed three time with TBS-T and incubated with horseradish peroxidase-conjugated IgG anti-rabbit (1:10000) and anti-mouse (1:10000) secondary antibodies to detect, T22 and Tau5, respectively. Blots were then washed three times in TBS-T and exposed to ECL plus (GE Healthcare) was used for signal detection. Densitometric analysis of each band was quantified using Image J.
Compounds were dissolved in ETOH 75%/DMSO (5:1) at a final concentration of 5 mM and diluted in 1× PBS or ddH2O for incubation or toxicity assay (final concentration 5 μM). […]
Densitometric analysis of each band was quantified using Image J and analyzed by two-way ANOVA followed by Dunnett's multiple comparisons test, performed using GraphPad Prism 6.01.

[3] = system: SH-SY5Y human neuroblastoma cells; assay: MTT viability of SH-SY5Y cells exposed to TauO pre-incubated with compound; assay type: cell-based; conditions: 2 μM TauO; curcumin final concentration 10 μM
Description: Human neuroblastoma SH-SY5Y cells were maintained in Dulbecco's modified Eagle's medium (DMEM) and grown to confluence in 96-well plates. […] Cells viability was corrected by the vehicle background. All measurements were performed in triplicate. The cytotoxic effect was determined using 3-(4,5-dimethylthiazol-2-yl)-2,5-diphenyltetrazolium bromide (MTT) assay for assessing cell viability following manufacturers' instructions. Optical density (OD) was measured at 490 nm with POLARstar OMEGA plate reader (BMG Labtechnologies). Cell viability was calculated as the percentage of the OD value of treated cells compared with untreated controls, according to the following equation: Viability=(OD SAMPLE/OD CONTROL)×100. […]
Human neuroblastoma SH-SY5Y cells were maintained in Dulbecco's modified Eagle's medium (DMEM) and grown to confluence in 96-well plates. […] The cytotoxic effect was determined using 3-(4,5-dimethylthiazol-2-yl)-2,5-diphenyltetrazolium bromide (MTT) assay for assessing cell viability following manufacturer's instructions. Optical density (OD) was measured at 490 nm with POLARstar OMEGA plate reader (BMG Labtechnologies). Cell viability was calculated as the percentage of the OD value of treated cells compared with untreated controls, according to the following equation: Viability=(OD SAMPLE/OD CONTROL)×100. […]

[4] = cited from earlier work
[5] = in vivo; cited from earlier work

T1 sequence (P10636 1-441 isoform P10636-8): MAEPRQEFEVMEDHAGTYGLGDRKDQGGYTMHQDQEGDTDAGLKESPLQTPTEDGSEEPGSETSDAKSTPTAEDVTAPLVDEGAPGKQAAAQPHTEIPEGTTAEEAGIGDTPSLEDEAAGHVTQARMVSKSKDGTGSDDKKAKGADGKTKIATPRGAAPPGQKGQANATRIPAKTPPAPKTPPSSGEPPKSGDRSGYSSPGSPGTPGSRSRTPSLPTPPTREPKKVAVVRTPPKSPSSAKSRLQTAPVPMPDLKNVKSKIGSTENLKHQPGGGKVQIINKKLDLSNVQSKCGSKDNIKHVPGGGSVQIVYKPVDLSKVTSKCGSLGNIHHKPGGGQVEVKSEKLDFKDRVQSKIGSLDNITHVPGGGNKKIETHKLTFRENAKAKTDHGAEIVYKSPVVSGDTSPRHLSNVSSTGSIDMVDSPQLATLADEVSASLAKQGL

Structure (SMILES): COc1cc(/C=C/C(=O)CC(=O)/C=C/c2ccc(O)c(OC)c2)ccc1O [curcumin]
- aggregation state of preformed tau oligomers, Western blot (T22, Tau 5, Tau 13) [1]: promoting the formation of larger tau aggregates
- aggregation state of preformed tau oligomers, Western blot (T22, Tau 5, Tau 13) ([1]; listed as Curcumin): alters the aggregation states of preformed tau oligomers
- oligomeric tau level, dot blot [2]: decreased levels of oligomeric tau; also recorded: significant decrease in oligomers
- viability of SH-SY5Y cells exposed to TauO pre-incubated with curcumin [3]: significantly higher cells viability when compared to TauO alone; also recorded: rescued cells from TauO-induced toxicity
- solubility in aqueous media [4]: poor solubility in aqueous buffers
- bioavailability [5]: low brain bioavailability following oral administration
